From US20240425589A1, “CYTOTOXICITY-INDUCING THERAPEUTIC AGENT FOR USE IN TREATMENT OF CANCER” (CHUGAI SEIYAKU KABUSHIKI KAISHA, priority 2021, published 2024)
Where a name gives a salt, the structure may show the parent alone.

Assays:
[1] = test system: TGF-β1 expression in cancer cells; conditions: reported in literature; cited from earlier work
[2] = test system: NIH:OVCAR-3; test: OVCAR3 xenograft in huNOG mice, combination with irinotecan hydrochloride; assay type: in vivo; conditions: 60 days after transplantation; CS4135 0.1 mg/kg, irinotecan hydrochloride 25 mg/kg, iv days 39, 46
Description: In this test, NOG(huNOG) mice (described in the aforementioned Example 13) transplanted with ovarian cancer cell line NIH:OVCAR-3 (OVCAR3, ATCC) and human CD34-positive cells were used. The OVCAR3 cell line was transplanted subcutaneously to the right flank of the mice, and the mice were divided into groups 39 days after transplantation. Individuals whose tumor volume reached 160 to 263 mm^3 were divided into groups. Vehicle 1 and CS4135 were administered into the mouse tail vein 39 and 46 days after transplantation. PBS containing 0.05% Tween-20 was used as Vehicle 1. Vehicle 2 and irinotecan hydrochloride (Sawai Pharmaceutical Co., Ltd.) were administered into the mouse tail vein 39 and 46 days after transplantation. Physiological saline was used as Vehicle 2.
Tumor volume was measured 39, 42, 46, 49, 53, 57, and 60 days after transplantation, and the average tumor volume is indicated for each group. The tumor volume was calculated by the following equation: […]
(§1) Tumor Growth Inhibition (TGI) was calculated by the following equation: […]

[3] = test system: TGF-β1 expression in NIH:OVCAR-3; test: TGF-β1 expression by quantitative PCR after chemotherapeutic agents; assay type: cell-based, human; conditions: 6 days; same treated cells as Example 21.1; vs untreated
Description: Next, the cDNAs prepared from the human ovarian cancer cell line (NIH:OVCAR-3, ATCC) treated with carboplatin, cisplatin, irinotecan, or gemcitabine, which were used in Example 21.1, were used to perform real-time PCR with TGF-β1-specific primers (Power SYBR (registered trademark) Green Master Mix, ThermoFisher), and TGF-β1 expression was analyzed (QuantStudio 12K Flex Real-Time PCR System, ThermoFisher).
Sequences of the primers for human TGF-β1 are as follows: […]
The same primers as those in the above-mentioned Example 21.1 were used as the primers for human GAPDH used as the internal control.

[4] = test system: CLDN6 expression in NIH-OVCAR3, NCI-H1435, SNG-M; test: CLDN6 expression by FACS after platinum preparation treatment; assay type: cell-based, human; conditions: 5 days; cisplatin 0.1 or 0.6 μg/mL, carboplatin 0.5 or 5 μg/mL; vs untreated
Description: Human ovarian cancer cell line (NIH-OVCAR3, ATCC), human lung cancer cell line (NCI-H1435, ATCC), and human endometrial cancer cell line (SNG-M, Health Science Research Resources Bank) were treated with cisplatin (CDDP, Nichiiko) or carboplatin (CBDCA, Sandoz) to analyze the effect of the treatment on CLDN6 expression.
Each cell was subjected to the addition of cisplatin at 0.1 μg/mL (OVCAR3) or 0.6 μg/mL (H1435, SNG-M), or carboplatin at 0.5 μg/mL (OVCAR3) or 5 μg/mL (H1435, SNG-M), and then cultured for five days. After culturing, the cells were recovered, and CLDN6 expression was analyzed by FACS.
In FACS analysis, cells were detached from the culturing flask and then reacted with an anti-CLDN6 antibody (AE3-20 mIgG2a, Japanese Patent No. 5848863) or an isotype antibody (mIgG2a, BioLegend) at 2 μg/mL, at 4° C. for one hour. Next, reaction with Alexa Flour 488-labeled anti-mouse IgG (ThermoFisher) at 10 μg/mL was performed at 4° C. for one hour, and the amount of CLDN6 expression was analyzed using a flow cytometer (FACSVerse, BD Biosciences).

[5] = test system: CLDN6 expression in NIH:OVCAR-3; test: CLDN6 expression by quantitative PCR after chemotherapeutic agents; assay type: cell-based, human; conditions: 6 days; carboplatin 0.5 μg/mL, cisplatin 0.1 μg/mL, irinotecan 0.25 μg/mL, gemcitabine 2 ng/mL; vs untreated
Description: Various chemotherapeutic agents were added to human ovarian cancer cell line (NIH:OVCAR-3, ATCC) to analyze the change in CLDN6 expression. Regarding the NIH:OVCAR-3 cells seeded on culture plates, RNAs were purified (RNeasy Mini Kit, QIAGEN) from cells to which no pharmaceutical agent was added (untreated cells), or from cells collected 6 days after addition of carboplatin (0.5 μg/mL), cisplatin (0.1 μg/mL), irinotecan (0.25 μg/mL), or gemcitabine (2 ng/mL), and then cDNA synthesis (Superscript IV VILO Master Mix, ThermoFisher) was performed. By using the cDNAs as templates, real-time PCR was performed using CLDN6-specific primers (Power SYBR (registered trademark) Green Master Mix, ThermoFisher) to analyze CLDN6 expression (QuantStudio 12K Flex Real-Time PCR System, ThermoFisher). Sequences of the primers for human CLDN6 and the primers for human GAPDH that were used as the internal control are as follows: […]

[6] = test system: CLDN6 expression in SNG-M tumor; test: CLDN6 expression by real-time PCR in SNG-M tumor transplant; assay type: in vivo, NOD/scid mice; conditions: 40 mg/kg or 80 mg/kg ip twice, vs vehicle
Description: SNG-M (1×10^7 cells) was transplanted subcutaneously to NOD/scid mice (CLEA Japan). After tumor engraftment, the vehicle (physiological saline) or carboplatin at 40 mg/kg or 80 mg/kg was administered intraperitoneally on the day of transplantation (day 0) and 3 days after transplantation (day 3), and the tumor was sampled 6 days after transplantation (day 6).
RNA was purified from the tumor (RNeasy Mini Kit, QIAGEN), and then cDNA synthesis was performed (Superscript IV VILO Master Mix, ThermoFisher). Using the cDNAs as templates, real-time PCR was performed using a CLDN6-specific primer (Power SYBR (registered trademark) Green Master Mix, ThermoFisher) to analyze CLDN6 expression (QuantStudio 12K Flex Real-Time PCR System, ThermoFisher).
Sequences of the primers for human CLDN6 and primers for human GAPDH used as an internal control are as follows: […]

[7] = test system: OVCAR3; test: OVCAR3 xenograft in huNOG mice, combination with carboplatin; assay type: in vivo; conditions: 56 days after transplantation; CS4135 0.1 mg/kg iv days 38, 45 (sequential: 48, 55), carboplatin 60 mg/kg ip days 38, 45
Description: In this test, NOG (huNOG) mice (described in the aforementioned Example 13) transplanted with ovarian cancer cell line OVCAR3 and human CD34-positive cells were used. The OVCAR3 cell line was transplanted subcutaneously to the right flank of the mice, and the mice were divided into groups 38 days after transplantation. Individuals whose tumor volume reached 119 to 210 mm^3 were divided into groups. Vehicle 1 and CS4135 were administered into the mouse tail vein 38 and 45 days after transplantation. PBS containing 0.05% Tween-20 was used as Vehicle 1. Vehicle 2 and carboplatin (Bristol Myers Squibb Company) were administered intraperitoneally to the mice 38 and 45 days after transplantation. Physiological saline was used as Vehicle 2.
Tumor volume was measured 38, 42, 45, 48, 52, and 56 days after transplantation, and the average tumor volume was indicated for each group. The tumor volume was calculated by the following equation: […]
as §1

[8] = test system: SNG-M; test: SNG-M xenograft in huNOG mice, combination with carboplatin; assay type: in vivo; conditions: 30 days after transplantation; CS4135 0.5 mg/kg iv day 13, carboplatin 40 mg/kg ip days 13, 16, 20
Description: In this test, NOG (huNOG) mice (described in the aforementioned Example 13) transplanted with human uterus cancer cell line SNG-M and human CD34-positive cells were used. The SNG-M cell line was transplanted subcutaneously to the right flank of the mice, and the mice were divided into groups 13 days after transplantation. Individuals whose tumor volume reached 130 to 244 mm^3 were divided into groups. Vehicle 1 and CS4135 were administered into the mouse tail vein 13 days after transplantation. PBS containing 0.05% Tween-20 was used as Vehicle 1. Vehicle 2 and carboplatin (Bristol Myers Squibb Company) were administered intraperitoneally to the mice 13, 16, and 20 days after transplantation. Physiological saline was used as Vehicle 2.
Tumor volume was measured 13, 16, 20, 23, 26, and 30 days after transplantation, and the average tumor volume was indicated for each group.
The tumor volume was calculated by the following equation: […]
as §1

[9] = test system: CLDN6 expression in UWB1.289; test: CLDN6 expression by FACS after PARP inhibitor, UWB1.289; assay type: cell-based, human; conditions: BRCA1-deficient UWB1.289, 0.03-3 μM, 3 days
Description: (§2) Induction of CLDN6 expression by a PARP inhibitor (olaparib) was assessed. BRCA1-deficient ovarian cancer cell line UWB1.289 (ATCC) or BRAC1 wildtype ovarian cancer cell line OV-90 (ATCC) which express human CLDN6 were used.
(§3) Target cells (3×10^5 cells) were plated onto a 6-well plate at 3 mL/well. After culturing overnight, olaparib was added at a final concentration of 0.03, 0.1, 0.3, 1, or 3 μM. DMSO was added to the control well. After incubating the plate for 3 days, the cells were recovered and the amount of CLDN6 expression on the cell surface was determined by FACS analysis using an anti-CLDN6 antibody. The level of fluorescence in the target cells recovered from the wells, to which various concentrations of olaparib were added, are shown in FIG. 27, wherein the level of fluorescence in the target cells recovered from the control well was defined as 1.

[10] = test system: CLDN6 expression in OV-90; test: CLDN6 expression by FACS after PARP inhibitor, OV-90; assay type: cell-based, human; conditions: BRAC1 wildtype OV-90, 0.03-3 μM, 3 days
Description: as §2, §3

## CC(=O)O[C@H]1C(=O)[C@@]2(C)[C@H]([C@H](OC(=O)c3ccccc3)[C@]3(O)C[C@H](OC(=O)[C@H](O)[C@@H](NC(=O)c4ccccc4)c4ccccc4)C(C)=C1C3(C)C)[C@]1(OC(C)=O)CO[C@@H]1C[C@@H]2O [paclitaxel]
[1]
  expression of TGF-β1 in cancer cells: induce expression of TGF-β11 in cancer cells

## CCc1c2c(nc3ccc(OC(=O)N4CCC(N5CCCCC5)CC4)cc13)-c1cc3c(c(=O)n1C2)COC(=O)[C@]3(O)CC [Irinotecan hydrochloride, irinotecan hydrochloride, reference compound]
[2]
  Tumor growth inhibition: TGI: 65%

## N.N.[Cl][Pt][Cl] [cisplatin]
[3]
  TGF-β1 expression: Increase in TGF-β1 expression was observed
[4]
  CLDN6 expression: increase in CLDN6 expression
[5]
  CLDN6 expression: Increase in CLDN6 expression was observed

## CCc1c2c(nc3ccc(OC(=O)N4CCC(N5CCCCC5)CC4)cc13)-c1cc3c(c(=O)n1C2)COC(=O)[C@]3(O)CC [irinotecan]
[3]
  TGF-β1 expression: Increase in TGF-β1 expression was observed
[5]
  CLDN6 expression: Increase in CLDN6 expression was observed

## N.N.O=C([O-])C1(C(=O)[O-])CCC1.[Pt+2] [Carboplatin, carboplatin]
[3]
  TGF-β1 expression: Increase in TGF-β1 expression was observed
[4]
  CLDN6 expression: increase in CLDN6 expression
[6]
  CLDN6 expression in the tumor: increased
[7]
  Tumor growth inhibition: TGI: −9%
[5]
  CLDN6 expression: Increase in CLDN6 expression was observed
[8]
  Tumor growth inhibition: TGI: 44%

## COc1cccc2c1C(=O)c1c(O)c3c(c(O)c1C2=O)C[C@@](O)(C(=O)CO)C[C@@H]3O[C@H]1C[C@H](N)[C@H](O)[C@H](C)O1 [doxorubicin]
[1]
  expression of TGF-β1 in cancer cells: induce expression of TGF-β11 in cancer cells

## O=C(c1cc(Cc2n[nH]c(=O)c3ccccc23)ccc1F)N1CCN(C(=O)C2CC2)CC1 [olaparib]
[9]
  CLDN6 expression induction: concentration-dependent enhancement of CLDN6 expression induction was observed
[10]
  CLDN6 expression induction: enhancement of CLDN6 expression induction was not observed at any concentration

## Nc1ccn([C@@H]2O[C@H](CO)[C@@H](O)C2(F)F)c(=O)n1 [gemcitabine]
[3]
  TGF-β1 expression: Increase in TGF-β1 expression was observed
[5]
  CLDN6 expression: Increase in CLDN6 expression was observed
